Columns and labels:
Assay type in all cases: biochemical
[1] = target: T1, FXIIa (Homo sapiens, UniProt P00748); assay: Determination of Factor XIIa inhibition, chromogenic substrate S-2302 assay; settings: human FXIIa alpha
T1 sequence (P00748 373-615 limits assumed): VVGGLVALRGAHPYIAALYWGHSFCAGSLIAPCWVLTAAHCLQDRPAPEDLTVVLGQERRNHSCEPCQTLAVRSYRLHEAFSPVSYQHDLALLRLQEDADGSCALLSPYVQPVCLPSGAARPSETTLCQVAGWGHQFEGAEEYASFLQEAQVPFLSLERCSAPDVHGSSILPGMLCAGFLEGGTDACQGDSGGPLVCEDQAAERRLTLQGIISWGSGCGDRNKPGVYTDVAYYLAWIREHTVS
T1 sequence (P00748 20-372 partner limits assumed): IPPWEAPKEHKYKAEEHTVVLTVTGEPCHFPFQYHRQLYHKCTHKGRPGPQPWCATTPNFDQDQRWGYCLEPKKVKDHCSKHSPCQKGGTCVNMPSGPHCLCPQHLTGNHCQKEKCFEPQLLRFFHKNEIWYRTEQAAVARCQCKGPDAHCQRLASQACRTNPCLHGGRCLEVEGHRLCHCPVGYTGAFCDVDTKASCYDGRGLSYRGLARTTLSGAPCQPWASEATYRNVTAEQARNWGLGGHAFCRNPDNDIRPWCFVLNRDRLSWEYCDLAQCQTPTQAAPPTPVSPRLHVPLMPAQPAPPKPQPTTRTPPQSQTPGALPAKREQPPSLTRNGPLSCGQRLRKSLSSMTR
Method in brief: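 FXIIa (10 nM) preincubated with compound 10 min at 37° C. in 50 mM Tris, 137 mM NaCl pH 7.4, 5% DMSO, top concentration 500 μM, then S-2302 added ([…]). Absorbance at 405 nm read kinetically for 3 h; IC50 from initial rates, converted to Ki by Cheng-Prusoff.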

[2] = target: T2, thrombin (Homo sapiens, UniProt P00734); assay: Determination of selectivity: thrombin inhibition, chromogenic substrate GPR assay; settings: fold selectivity for FXIIa over thrombin
T2 construct: FXa (5 nM) and thrombin (5 nM)
Method in brief: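 Thrombin (5 nM) preincubated with compound 10 min at 37 °C in 50 mM Tris, 137 mM NaCl, pH 7.4, 5% DMSO, then GPR substrate ([…]) added. Absorbance at 405 nm read kinetically for 3 h; IC50 from initial rates, converted to Ki via Ki=IC50/(1+[S]/Km).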

[3] = target: FXa (Homo sapiens, UniProt P00742); assay: Determination of selectivity: FXa inhibition, chromogenic substrate S2765 assay; settings: fold selectivity for FXIIa over FXa
Method in brief: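 Human FXa (5 nM) preincubated with compound (top 500 μM, 5% DMSO) 10 min at 37 °C in 50 mM Tris, 137 mM NaCl pH 7.4, then S2765 ([…]) added; A405 kinetics over 3 h at 37 °C. IC50 from initial rates, converted to Ki via Cheng-Prusoff.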

FXa, sequence (P00742 235-488 limits assumed): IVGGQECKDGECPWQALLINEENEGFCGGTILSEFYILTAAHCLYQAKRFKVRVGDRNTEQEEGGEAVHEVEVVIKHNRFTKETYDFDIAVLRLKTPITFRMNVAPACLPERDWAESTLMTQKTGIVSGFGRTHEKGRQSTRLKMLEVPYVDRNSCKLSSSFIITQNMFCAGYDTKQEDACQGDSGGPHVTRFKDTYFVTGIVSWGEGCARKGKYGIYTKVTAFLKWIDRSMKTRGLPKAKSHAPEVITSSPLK
FXa, sequence (P00742 41-179 partner limits assumed): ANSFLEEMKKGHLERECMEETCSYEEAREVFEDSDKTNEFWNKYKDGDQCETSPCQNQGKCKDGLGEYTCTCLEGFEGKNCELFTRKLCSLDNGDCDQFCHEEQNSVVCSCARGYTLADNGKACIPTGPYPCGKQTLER

| Ki [1] [µM] | Thrombin (human)/FXIIa alpha (human) [2] | FXa (human)/FXIIa alpha (human) [3] | SMILES |
| --- | --- | --- | --- |
| 0.2 to 2 | ++ (fold selectivity value of 10 to 100) | ∘∘ | Cn1nnc2cc(CNC(=O)[C@@H]3C[C@@H](Cc4ccc(F)cc4F)CN3C(=O)[C@H]3C[C@@H](c4ccccc4)CN3)ccc21 [Example M05361] |
| 0.2 to 2 | ++ (fold selectivity value of 10 to 100) | ∘∘∘ | COc1ccc(C[C@@H]2C[C@@H](C(=O)NCc3ccc4c(c3)nnn4C)N(C(=O)[C@H]3C[C@@H](Cc4ccccc4)CN3)C2)cc1 [Example M05383] |
| 0.2 to 2 | ++ (fold selectivity value of 10 to 100) | ∘∘ | Cn1nnc2cc(CNC(=O)[C@@H]3C[C@@H](Cc4ccc(Cl)cc4Cl)CN3C(=O)[C@H]3C[C@@H](c4ccccc4)CN3)ccc21 [Example M05373] |
| < 0.2 | ++ (fold selectivity value of 10 to 100) | ∘∘∘ | COc1ccc(C[C@@H]2C[C@@H](C(=O)NCc3cc4ccncc4[nH]3)N(C(=O)[C@H]3C[C@@H](c4ccccc4)CN3)C2)cc1 [Example M00953] |
| 0.2 to 2 | ++ (fold selectivity value of 10 to 100) | ∘∘ | Cc1cccc(C[C@@H]2C[C@@H](C(=O)NCc3ccc4c(c3)nnn4C)N(C(=O)[C@H]3C[C@@H](c4ccccc4)CN3)C2)c1 [Example M05359] |

Further lines, the molecule ahead of its results:

| SMILES | Ki [1] [µM] | Thrombin (human)/FXIIa alpha (human) [2] | FXa (human)/FXIIa alpha (human) [3] |
| --- | --- | --- | --- |
| NCc1ccc(CNC(=O)[C@@H]2CCCN2C(=O)[C@H](N)CCC(=O)N2CCC3CC32)cc1 (stereo partly drawn) [Example M00929] | > 2 | + (fold selectivity values less than 10) | ∘∘ |
| COc1ccc(C[C@@H]2C[C@@H](C(=O)NCc3cc4cccnc4[nH]3)N(C(=O)[C@H](N)CCC(=O)N3CCCC3)C2)cc1 [Example M05401] | > 2 | ++ (fold selectivity value of 10 to 100) | ∘∘ |
| NCc1ccc(CNC(=O)[C@@H]2CCCN2C(=O)[C@H](N)CCN2CCCCC2)cc1 [Example M00801] | > 2 | ++ (fold selectivity value of 10 to 100) | ∘∘ |
| Cn1nccc1-c1ccc(C[C@@H]2C[C@@H](C(=O)NCc3ccc4c(c3)nnn4C)N(C(=O)[C@H]3C[C@@H](c4ccccc4)CN3)C2)cc1 [Example M05367] | 0.2 to 2 | +++ (fold selectivity values greater than 100) | ∘∘∘ |
| Cn1nnc2cc(CNC(=O)[C@@H]3C[C@@](O)(c4ccc(F)c(F)c4)CN3C(=O)[C@H](N)CCc3ccccc3)ccc21 [Example M05128] | > 2 | ++ (fold selectivity value of 10 to 100) | ∘∘ |
| Nc1nccc2cc(CNC(=O)[C@@H]3C[C@H](C(F)(F)F)CN3C(=O)[C@H](N)CCC(=O)N3CCCC3)ccc12 [Example M05265] | 0.2 to 2 | + (fold selectivity values less than 10) | ∘ |
| COc1ccc(C[C@@H]2C[C@@H](C(=O)NCc3cc4cnccc4[nH]3)N(C(=O)[C@H]3C[C@@H](C(=O)N4CCCC4(C)C)CCN3)C2)cc1 [Example M00967] | < 0.2 | +++ (fold selectivity values greater than 100) | ∘∘∘ |
| Cn1nnc2cc(CNC(=O)[C@@H]3C[C@H](C(F)(F)F)CN3C(=O)[C@H](N)CCc3ccccc3)ccc21 [Example M05102] | > 2 | ++ (fold selectivity value of 10 to 100) | ∘∘ |
| COc1ccc(C[C@@H]2C[C@@H](C(=O)NCc3ccc4c(c3)nnn4C)N(C(=O)[C@H](N)CCC(=O)N3CCCC3C)C2)cc1 (stereo partly drawn) [Example M05391] | < 0.2 | +++ (fold selectivity values greater than 100) | ∘∘∘ |
| COc1ccc(C[C@@H]2C[C@@H](C(=O)NCc3ccc4c(c3)nnn4C)N(C(=O)[C@H]3C[C@@H](c4ncccn4)CN3)C2)cc1 [Example M05387] | 0.2 to 2 | +++ (fold selectivity values greater than 100) | ∘∘∘ |
| N[C@H](CCC(=O)N1CCCC1)C(=O)N1C[C@H](Cc2ccc(C(F)(F)F)cc2)C[C@H]1C(=O)NCc1cc2cnccc2[nH]1 [Example M00969] | < 0.2 | +++ (fold selectivity values greater than 100) | ∘∘∘ |
| COc1ccc(C[C@@H]2C[C@@H](C(=O)NCc3ccc4c(c3)nnn4C)N(C(=O)[C@H](N)CCC(=O)N3CCC[C@@H]3C(C)C)C2)cc1 [Example M05412] | < 0.2 | +++ (fold selectivity values greater than 100) | ∘∘∘ |
| Cn1ncc2cc(CNC(=O)[C@@H]3C[C@@H](Cc4cccnc4)CN3C(=O)[C@H](N)CCC(=O)N3CCCC3)ccc21 [Example M05228] | 0.2 to 2 | +++ (fold selectivity values greater than 100) | ∘∘∘ |
| COc1cc(CNC(=O)[C@@H]2C[C@H](c3ccccc3)CN2C(=O)[C@H](N)CCc2ccccc2)ccc1CN [Example M05068] | 0.2 to 2 | ++ (fold selectivity value of 10 to 100) | ∘∘∘ |
| Cn1nnc2cc(CNC(=O)[C@@H]3C[C@H](N4CCN(Cc5ccccc5)CC4)CN3C(=O)[C@H](N)CCc3ccccc3)ccc21 [Example M05200, (2S,4S)-1-((R)-2-Amino-4-phenyl-butyryl)-4-(4-benzyl-piperazin-1-yl)-pyrrolidine-2-carboxylic acid (1-methyl-1H-benzotriazol-5-ylmethyl)-amide] | > 2 | ++ (fold selectivity value of 10 to 100) | ∘∘ |
| Cn1nnc2cc(CNC(=O)[C@@H]3C[C@H](c4ccccc4)CN3C(=O)[C@H](N)CCc3ccccc3)ccc21 [Example M05163] | > 2 | ++ (fold selectivity value of 10 to 100) | ∘∘ |
| Cn1cc(-c2cccc(C[C@@H]3C[C@@H](C(=O)NCc4ccc5c(c4)nnn5C)N(C(=O)[C@H](N)CCC(=O)N4CCCC4)C3)c2)cn1 [Example M05330] | 0.2 to 2 | +++ (fold selectivity values greater than 100) | ∘∘∘ |
| COc1ccc(C[C@@H]2C[C@@H](C(=O)NCc3ccc4c(c3)nnn4C)N(C(=O)[C@H]3C[C@@H](N4CCCCC4)CN3)C2)cc1 [Example M00955] | 0.2 to 2 | +++ (fold selectivity values greater than 100) | ∘∘∘ |
| COc1ccc(C[C@@H]2C[C@@H](C(=O)NCc3cc4cnccc4[nH]3)N(C(=O)[C@H]3C[C@@H](N4CCCCC4)CN3)C2)cc1 [Example M00964] | < 0.2 | +++ (fold selectivity values greater than 100) | ∘∘∘ |
| CN(C)[C@H](CCC(=O)N1CCCC1)C(=O)N1C[C@H](Cc2cccnc2)C[C@H]1C(=O)NCc1ccc2c(cnn2C)c1 [Example M05223] | 0.2 to 2 | +++ (fold selectivity values greater than 100) | ∘∘∘ |

Source: patent US12336991B2, “Factor XIIA inhibitors” (UNIVERSITY OF LEEDS, priority 2018, dated 2025)
